From US3995047A, “Propiophenone derivatives in the treatment of pathological muscular conditions” (Eisai Co., Ltd., priority 1973, dated 1976)

How the values were obtained:
[1] = tested on: isolated smooth muscle preparations; assay: Smooth muscle-relaxing activity on isolated smooth muscle preparations; details: for smooth muscle-relaxant activity (in words): A at 4 × 10^-6, B at 10^-6, C at 4 × 10^-7 g/ml, concentration for control not stated
Excerpt: (§1) Additionally, anti-histamine, anti-acetylcholine, antiserotonin and smooth muscle-relaxing activities of the compounds under test were examined on isolated smooth muscle preparations.

[2] = tested on: physostigmine-induced convulsive death; assay: Anti-physostigmine activity: antagonism of convulsive death caused by physostigmine; format: in vivo, male d,d-strain mice; details: Mus musculus, 1 h; oral, mice, 60 minutes after administration; footnote 1) for control: no effect up to the dose
Method: (§2) Male d,d-strain mice weighing 18 to 22 grs. were used for the experiments.
(§3) Groups of each 10 mice were treated orally and intraperitoneally with a wide range of doses of the above-mentioned compounds or saline.
(§4) 2) Anti-nicotine and anti-physostigmine activities:
(§5) Antagonistic effects against the convulsive death of the mice caused by the injections of nicotine, on one hand, and physostigmine, on the other hand, were observed as follows:
(§6) Thirty (30) minutes after the intraperitoneal injection of the individual compounds under test, on one hand, and 60 minutes after the oral administration of said individual compounds, on the other hand, 4 mg/kg of nicotine tartrate, on one hand, and 0.5 mg/kg of physostigmine sulfate, on the other hand, were intravenously injected to each group of the mice. The convulsive death, if any, of the mice in each group was then observed.

tremorine-induced tremor = assay: Anti-tremorine activity: antagonism of tremorine-induced tremor; format: in vivo, male d,d-strain mice; details: Mus musculus, mice
Method: as §2, §3
1) Anti-tremorine activity:
Antagonistic effects on the tremorine-induced tremor were observed as follows:
Ten (10) minutes after the intraperitoneal injection of the individual compounds under test, on one hand, and 40 minutes after the oral administration of said individual compounds, on the other hand, 20 mg/kg of tremorine hydrochloride were subcutaneously injected to each group of the mice. The occurrence of tremor on the individually caged mice was visually observed 20 minutes after the tremorineinjection.

mice = assay: Acute toxicity: mortality during 24 hours after oral administration; format: in vivo; details: 24 hours
Method: as §2, §3
(§7) The mortality ensued during 24 hours after the oral administration was recorded to determine acute toxicity of the compound under test on the mice.

[3] = as above; format: in vivo; details: mouse, in vivo, mice, mortality during 24 hours
Method: as §2, §3, §7

in vivo = assay: in vivo; set-up: species or system male d,d-strain mice; details: mouse, po
Method: as §2, §3

[4] = tested on: nicotine-induced convulsive death; assay: Anti-nicotine activity: antagonism of convulsive death caused by nicotine; format: in vivo, male d,d-strain mice; details: Mus musculus, mice
Method: as §2, §3, §4, §5, §6

[5] = tested on: isolated smooth muscle preparations (histamine); assay: Anti-histamine activity on isolated smooth muscle preparations; details: A at 4 × 10^-6, B at 10^-6, C at 4 × 10^-7 g/ml
Excerpt: as §1

[6] = tested on: isolated smooth muscle preparations (acetylcholine); assay: Anti-acetylcholine activity on isolated smooth muscle preparations; details: A at 4 × 10^-6, B at 10^-6, C at 4 × 10^-7 g/ml
Excerpt: as §1

[7] = 1 h, oral, 60 minutes after administration
[8] = ip, 0.5 h, intraperitoneal, 30 minutes after injection

Compound | smooth muscle-relaxant activity (in words) [1] | ED50 [2] | ED50 (tremorine-induced tremor; [7]) | ED50 (tremorine-induced tremor; [8]) | acute toxicity compared with Compound under control (in words) (mice) | LD50 at 24 h [3] | TD50 at 1 h (in vivo) | ED50 [4, 7] | ED50 [4, 8] | anti-histamine activity (in words) [5] | anti-acetylcholine activity (in words) [6] | smooth muscle-relaxant potency relative to papaverine ([1]; Compound under control vs papaverine)
CCCc1ccc(C(=O)C(C)CN2CCCCC2)cc1.Cl (centres unmarked) [Compound B, 4'-n-propyl-2-methyl-3-piperidino-propiophenone hydrochloride] | strong smooth muscle-relaxant activities | 150 mg/kg | 50 mg/kg | 21 mg/kg | almost equivalent to that of Compound under control | 1000 to 1500 mg/kg | 800 mg/kg | 135 mg/kg | 20 mg/kg | do not entirely produce | do not entirely produce | 
CCc1ccc(C(=O)C(C)CN2CCCCC2)cc1.Cl (centres unmarked) [Compound A, 4'-ethyl-2-methyl-3-piperidino-propiophenone hydrochloride] | strong smooth muscle-relaxant activities | 84 mg/kg | 32 mg/kg | 23 mg/kg | slighly stronger | 800 to 1000 mg/kg | 640 mg/kg | 175 mg/kg | 21 mg/kg | do not entirely produce | do not entirely produce | 
CC(CN1CCCCC1)C(=O)c1ccc(C(C)C)cc1.Cl (centres unmarked) [Compound C, 4'-isopropyl-2-methyl-3-piperidino-propiophenone hydrochloride] | strong smooth muscle-relaxant activities | 50 mg/kg | 118 mg/kg | 25 mg/kg |  | 400 to 500 mg/kg | 84 mg/kg | 37 mg/kg | 10 mg/kg | do not entirely produce | do not entirely produce | 
Cc1ccc(C(=O)C(C)CN2CCCCC2)cc1.Cl (centres unmarked) [Compound for Control, 2,4'-dimethyl-3-piperidino-propiophenone hydrochloride, reference compound] | weak smooth muscle-relaxant activity | > 400 mg/kg | 210 mg/kg | 80 mg/kg |  | 1000 to 1500 mg/kg | 800 mg/kg | 450 mg/kg | 35 mg/kg |  |  | about 1/3
